The text below walks through data of ChEMBL document CHEMBL3286303, “Synthesis and in vitro antiproliferative evaluation of novel N-alkylated 6-isobutyl- and propyl pyrimidine derivatives” (Bioorg Med Chem Lett, 2014).

For experiment [1], the system named is MCF7. In words: Antiproliferative activity against human MCF7 cells after 72 hrs by MTT assay. In kind it is functional, cell-based. As to conditions: MCF7, 72 h.
For experiment [2], the system named is SW-620. In words: Antiproliferative activity against human SW620 cells after 72 hrs by MTT assay. The format is functional, cell-based. As to conditions: SW-620, 72 h. Background: Formazan colour is commonly taken as a measure of viable cells.
Experiment [3] can be described thus: Antiproliferative activity against human MIAPaCa2 cells after 72 hrs by MTT assay. The following applies: MIA PaCa-2, 72 h. In kind it is functional, cell-based.
The test system of experiment [4] is HepG2. In words: Antiproliferative activity against human HepG2 cells after 72 hrs by MTT assay. The following applies: HepG2, 72 h. The format is functional, cell-based.
In experiment [5] the test system is HeLa. In words: Antiproliferative activity against human HeLa cells after 72 hrs by MTT assay. The format is functional, cell-based.
The test system of experiment [6] is MCR. In words: Antiproliferative activity against human MCR cells after 72 hrs by MTT assay.
The test system of experiment [7] is WI-38. In words: Antiproliferative activity against human WI38 cells after 72 hrs by MTT assay. As to conditions: Homo sapiens, WI-38, 72 h. In kind it is cell-based.
In experiment [8] the test system is K562. In words: Antiproliferative activity against apoptosis-resistant, Philadelphia chromosome-positive human K562 cells after 72 hrs by PrestoBlue colorimetric assay. In kind it is functional, cell-based. The following applies: K562, 72 h.
In experiment [9] the test system is BJ. In words: Antiproliferative activity against human BJ cells after 72 hrs by PrestoBlue colorimetric assay. In kind it is cell-based.
The test system of experiment [10] is MCR. In words: Antiproliferative activity against human MCR cells after 72 hrs by MTT assay. The format is cell-based. The following applies: MCR.

One may read the IC50 as the concentration needed to halve the response being measured. Read a high IC50 as weaker potency in that assay. With `COCn1c(CC(O)(COCc2ccccc2)COCc2ccccc2)cc(=O)[nH]c1=O`, the IC50 in experiment [1], in experiment [2], in [3], in [4], in [5] and in [6] was more than 100 µM throughout.
For `C[Si](C)(C)CCOCn1c(CC(O)CO)cc(=O)[nH]c1=O` (stereo unspecified), the IC50 in [1], in experiment [2], in experiment [3], in experiment [4], in experiment [5] and in [6] was more than 100 µM throughout.
For `COCn1c(=O)[nH]c(CC(COCc2ccccc2)COCc2ccccc2)c(C)c1=O`, the IC50 in experiment [1] is 21.6 µM; in experiment [2] it was 25.6 µM; in experiment [3] it was 27.3 µM; in experiment [5], 17 µM; in [7], 19.4 µM.
With `Cc1cn(-c2cc(NC(=O)c3ccc(C)c(Nc4nccc(-c5cccnc5)n4)c3)cc(C(F)(F)F)c2)cn1` [NILOTINIB], the IC50 was determined as 2.4 µM in [8] and 12.8 µM in [9].
`COCn1c(CC(O)COCc2ccccc2)c(C)c(=O)[nH]c1=O` (stereo unspecified): the IC50 in experiment [1], in [2], in experiment [3], in [4], in experiment [5] and in experiment [6] was more than 100 µM throughout.
Turning to `C[Si](C)(C)CCOCn1c(CC(O)(COCc2ccccc2)COCc2ccccc2)cc(=O)[nH]c1=O`, the IC50 in [1], in experiment [2], in experiment [3], in experiment [4], in [5] and in experiment [6] was more than 100 µM in each case.
`COc1nc(CC(O)COCc2ccccc2)c(C)c(OC)n1` (stereo unspecified): the IC50 in experiment [1], in [2], in experiment [3], in experiment [4], in [5] and in experiment [10] was more than 100 µM in each case.
As for `COc1cc(CC(O)COCc2ccccc2)nc(OC)n1` (stereo unspecified), the IC50 in experiment [1], in experiment [2], in experiment [3], in experiment [4], in [5] and in [6] was more than 100 µM throughout.
Take `O=c1cc(CC(COCc2ccccc2)COCc2ccccc2)[nH]c(=O)[nH]1`: the IC50 in [1], in experiment [2], in experiment [3], in [4], in experiment [5] and in [6] was more than 100 µM throughout.
Take `Cc1c(CC(O)CO)n(COCC[Si](C)(C)C)c(=O)[nH]c1=O` (stereo unspecified): the IC50 in experiment [1], in [2], in [3], in experiment [4], in [5] and in experiment [6] was more than 100 µM throughout.
For the molecule `C[Si](C)(C)CCOCn1c(CC(O)(CO)CO)cc(=O)[nH]c1=O`, the IC50 in [1], in experiment [2], in experiment [3], in [4], in experiment [5] and in experiment [6] was more than 100 µM in each case.
For `COCn1c(CC(O)(CO)CO)cc(=O)[nH]c1=O`, the IC50 in experiment [1], in experiment [2], in experiment [3], in [4], in experiment [5] and in experiment [6] was more than 100 µM in each case.
Molecule `COc1nc(CC(O)(COCc2ccccc2)COCc2ccccc2)c(C)c(OC)n1` displayed an IC50 in [3] of 6.1 µM.
`COc1cc(CC(O)(COCc2ccccc2)COCc2ccccc2)nc(OC)n1`: the IC50 in experiment [1], in experiment [2], in experiment [3], in experiment [4], in [5] and in [6] was more than 100 µM each time.
Turning to `COCn1c(CC(COCc2ccccc2)COCc2ccccc2)cc(=O)[nH]c1=O`, the IC50 in experiment [1], in experiment [2], in [3], in [4], in [5] and in [6] was more than 100 µM in each case.
`O=c1cc(CC(O)COCc2ccccc2)[nH]c(=O)[nH]1` (stereo unspecified): the IC50 in experiment [1], in experiment [2], in experiment [3], in experiment [4], in experiment [5] and in [6] was more than 100 µM in each case.
With `Cc1c(CC(O)COCc2ccccc2)n(COCC[Si](C)(C)C)c(=O)[nH]c1=O` (stereo unspecified), the IC50 in [1], in experiment [2], in experiment [3], in experiment [4], in [5] and in [6] was more than 100 µM in each case.
In the case of `COc1cc(CC(COCc2ccccc2)COCc2ccccc2)nc(OC)n1`, the IC50 in [1] was 0.3 µM; in [2], more than 100 µM; in experiment [4], 0.3 µM; in experiment [5] it was 3.5 µM; in [6] it was 18.5 µM.
As for `COCn1c(CC(COCc2ccccc2)COCc2ccccc2)c(C)c(=O)[nH]c1=O`, the IC50 worked out at 72.6 µM in [1]; 72.1 µM in [2]; 55.9 µM in experiment [3]; 29.7 µM in experiment [5]; 30.8 µM in experiment [7].
For `O=c1cc(CC(O)(COCc2ccccc2)COCc2ccccc2)[nH]c(=O)[nH]1`, the IC50 in experiment [1], in experiment [2], in experiment [3], in experiment [4], in experiment [5] and in experiment [6] was more than 100 µM throughout.
In the case of `Cc1c(CC(O)COCc2ccccc2)[nH]c(=O)[nH]c1=O` (stereo unspecified), the IC50 in experiment [1], in experiment [2], in experiment [3], in experiment [4], in experiment [5] and in experiment [6] was more than 100 µM in each case.
For `C[Si](C)(C)CCOCn1c(CC(O)COCc2ccccc2)cc(=O)[nH]c1=O` (stereo unspecified), the IC50 in [1], in experiment [2], in experiment [3], in [4], in [5] and in experiment [6] was more than 100 µM each time.
With `COCn1c(CC(O)CO)c(C)c(=O)[nH]c1=O` (stereo unspecified), the IC50 in experiment [1], in experiment [2], in [3], in [4], in experiment [5] and in experiment [6] was more than 100 µM each time.
